Read-outs that look alike come from different tables or passages of the source.
How the values were obtained:
[1] = Cassette pharmacokinetic experiment in rats (IV); format: in vivo; conditions: rat, plasma, 1 mg/kg, male SD rats, tail vein IV, 1 mg/mL each compound at 1 mL/kg
Text: 2.1 Pharmacokinetic Properties of Some Compounds of the Present Disclosure Evaluated by Cassette Pharmacokinetic Experiments in Rats.
[Test materials]: Male SD rats, age: 6-8 weeks, body weight 220-250 g, purchased from Zhaoyan (Suzhou) New Drug Research Center Co., Ltd.; Tolbutamide (Aladdin, Cat #H1401054); Sulfobutyl-(Captisol, Shandong Binzhou Zhiyuan Biological Technology Co., Ltd, Cat #20191013); Propylene glycol (15)-stearate (Solutol, Meilun Bio, Cat #50206A); DMSO (Vetec Company, Cat #WXBD0293V); acetonitrile (Sigma-Aldrich, Cat #WXBD1744V); Methanol (Sigma-Aldrich, Cat #WXBD2831V).
[Experimental procedure]: The compound combination was prepared in a solvent of 5% DMSO/10% Solutol/85% (20% Captisol), and the final concentration of each compound was 1 mg/mL. The SD rats were treated with the compound preparation in 1 mL/kg by tail vein IV injection, and blood samples were collected at the time points of 5 min, 15 min, 30 min, 1 h, 2 h, 4 h, 8 h, and 24 h via external jugular vein puncture, centrifuged at low temperature for 20 minutes to collect plasma samples, which were stored at −80° C. until analysis.
[Sample analysis]: Establishing LC-MS/MS compound analysis method
Standard curve preparation: 20 μL of lmg/mL DMSO stock solution for each compound was aspirated and transferred to […] of 50% methanol working solution, and the resulting solution was serially diluted to obtain a standard curve working solution with concentrations of 20000, 10000, 5000, 1000, 500, 100, 50, 20 and […]. Then 5 µL of this standard curve working solution was mixed with 45 μL rat blank plasma to give a standard curve with concentrations of 2000, 1000, 500, 100, 50, 10, 2 and 1 ng/mL for quantification of unknown samples.
Sample pretreatment: 50 μL of unknown plasma sample or standard curve sample was mixed with 250 μL of acetonitrile containing internal standard as a precipitant. The plasma protein was precipitated, extracted for test compounds, and centrifuged at low temperature for 20 minutes. The supernatant was taken, mixed with 0.1% formic acid aqueous solution, and 5 μL of the resulting solution was aspirated for blood concentration analysis.
[Data processing]: A standard curve was plotted using mass spectrometry software, to quantify unknown samples, and pharmacokinetic parameters are calculated by Winnonlin 8.2 using the drug concentration of unknown samples at each time point.

[2] = system: human non-small cell lung cancer cells NCI-H358 with KRas G12C mutation; assay: NCI-H358 cell proliferation, CellTiter-Glo Luminescent Cell Viability Assay; format: cell-based; conditions: for inhibition at 1 µM: 1 μM compound, read-out: Inhibition rate % (1 μM)
Text: This assay verified the inhibitory activity of the compounds of the present disclosure on the proliferation of human non-small cell lung cancer cells NCI-H358 with KRas G12C mutation by using Promega's CellTiter-Glo® Luminescent Cell Viability Assay kit.
[Test materials]: NCI-H358 cell line (Cell Resource Center, IBMS, CAMS/PUMC, Item number: 3111C0001CCC000470), 96-well transparent flat-bottomed black-walled cell culture plate (Greiner Bio one, Cat #655096), RPMI-1640 Medium (GE, Cat #SH30809.01), Fetal Bovine Serum FBS (Thermo Fisher, Cat #10099-141), CellTiter-Glo® Luminescent Cell Viability Assay Kit (Promega, Cat #G7573), PBS (Solarbio, Cat #P1020), Trypsin (Thermo Fisher, Cat #25200072), DMSO (Sigma, Cat #D2650), Methyl cellulose (SIGMA, Cat #9004-67-5).
[Experimental procedure]: 180 μL of cell suspension (RPMI1640 solution with 10% FBS and 1% methyl cellulose) was charged to a 96-well cell culture plate at a density of 1500 cells/well. A control group containing no cells, no compounds and only 3D complete medium (RPMI 1640 solution with 1! Methyl cellulose and 10% FBS) (i.e. culture medium control) and a control group containing no compounds but cells (i.e. cell control) were set. AMG510 or the following reference compounds were used as positive controls. The cell plate was placed in a cell incubator overnight. A 10-fold drug solution (RPMI1640 solution with 10% FBS and 1% DMSO) was prepared at a concentration of 10 μM, and 20 μL of this solution was added to each well of the 96-well plate seeded with cells, so that the final concentration of the compounds in each well was 1 μM, and the DMSO concentration […] replicate wells were set up for each compound. The solutions of AMG510 or the following reference compounds were prepared in the same way and added to the positive control wells. The cell plate was placed in a cell incubator and cultured for 120 h. For endpoint detection, the CellTiter-Glo reagent was melted, and the cell plate was moved to room temperature to equilibrate for 30 minutes, added with 100 µL of CellTiter-Glo to each well, and shaken on an orbital shaker for 5 minutes to fully lyse the cells. The plate was kept at room temperature for 20 minutes to stabilize the luminescence signal, and the luminescence value of each well was full wavelength scanned with a multi-functional microplate reader (Molecular Devices, Spectramax M3 microplate reader).
[Test samples] The compounds of Examples 1-39, and reference compound A
[Data Analysis] The following formula was used to calculate the cell inhibition rate under the action of each concentration of the compounds:
Inhibition rate %=[1−(LumDrug to be tested−LumCulture medium control)/(LumCell control−LUMCulture medium control)]×100%
IC50 values were calculated using GraphPad Prism 7.0 software, nonlinear Sigmoidal regression was used to fit the data to obtain a dose-response curve.

[3] = system: human non-small cell lung cancer NCI-H358 xenograft; assay: Antitumor activity in NCI-H358 xenograft mouse model; format: in vivo, NPSG mice; conditions: NPSG mice, gavage once daily 10 mg/kg, day 14
Procedure: Tumor growth inhibitory activity of the compounds of the present disclosure was evaluated and verified in a human non-small cell lung cancer NCI-H358 xenograft mouse model.
[Test materials]: NCI-H358 cell line carrying KRAS G12C mutation, provided by KYinno Biotechnology Co., Ltd. (from ATCC, Cat #CRL-5807). NPSG mice, female, provided by Beijing Phenotek Biotechnologies Inc.
[Experimental procedure]: 5×10^6 NCI-H358 cells (containing 50% Matrigel) were inoculated subcutaneously on the right flank of 6-8 weeks old female NPSG mice, with the inoculation volume of 0.1 mL. When the average tumor size reached 160-220 mm^3, the mice were grouped randomly according to tumor size and body weight, upon which the mice were treated with compounds on the same day designated as Day 0. The mice were gavage administrated once daily at 10 mg/kg or solvent control (50 mM citrate buffer containing 10% cyclodextrin, pH5.0). Tumor volume and body weight were measured twice a week during the study. The tumor volume was calculated by the formula V=D×d×d/2, wherein D and d refer to the long and short diameter of the tumor respectively.
In addition, using the same materials and procedures as above, the tumor inhibition activity of Example 9 at different doses in the above-mentioned non-small cell lung cancer mouse model and its effect on body weight were also investigated.

AUC(0-t) [1] [ng·h/mL] | clearance [1] [mL/min/kg] | half-life [1] [h] | IC50 ([2]; 120 h, read-out: IC50) [µM] | IC50 ([2]; read-out: IC50 value) [µM] | SMILES | inhibition at 1 µM ([2]; 120 h) [%] | TGI(%) [3] [%] | Tumor volume (mm^3) (day 14) [3]
592 | 27.4 | 2.66 | 0.018 | < 0.02 | C=CC(=O)N1CCN(c2c(C#N)c(-c3cccc4c3CCN(C)C4)nc3c(F)c(-c4ccc(F)c5sc(N)nc45)c(Cl)cc23)CC1 [Example 10, 4-(4-Acryloylpiperazin-1-yl)-7-(2-amino-7-fluorobenzo[d]thiazol-4-yl)-6-chloro-8-fluoro-2-(2-methyl-1,2,3,4-tetrahydroisoquinolin-5-yl)quinoline-3-carbonitrile] | 96.1 |  | 
657 | 20.9 | 2.87 | 0.015 | < 0.02 | C=CC(=O)N1CCN(c2c(C#N)c(O[C@@H]3CN(C)C[C@H]3OC)nc3c(F)c(-c4ccc(F)c5sc(N)nc45)c(Cl)cc23)C[C@H]1C [Example 1, 4-((R)-4-acryloyl-3-methylpiperazin-1-yl)-7-(2-amino-7-fluorobenzo[d]thiazol-4-yl)-6-chloro-8-fluoro-2-(((3R,4R)-4-methoxy-1-methylpyrrolidin-3-yl)oxy)quinoline-3-carbonitrile] | 94.7 | 71 | 478.4
 |  |  | 0.003 | < 0.02 | C=CC(=O)N1CCN(c2c(C#N)c(O[C@@H]3CN(C)C[C@H]3OC)nc3c(F)c(-c4ccc(F)c5sc(N)nc45)c(Cl)cc23)CC1 [Example 2, 4-(4-Acryloylpiperazin-1-yl)-7-(2-amino-7-fluorobenzo[d]thiazol-4-yl)-6-chloro-8-fluoro-2-(((3R,4R)-4-methoxy-1-methylpyrrolidin-3-yl)oxy)quinoline-3-carbonitrile] | 97.6 | 69 | 497.3
